The record followed here is ChEMBL document CHEMBL1153024, “Antibacterial diterpenes from Plectranthus ernstii” (2009).

As usually defined, the MIC is the lowest concentration that inhibits growth of the organism.

One test concerns Mycolicibacterium phlei. As to the kind of experiment: Antibacterial activity against Mycobacterium phlei after 72 hrs. The test is classed as functional.
Test [1] deals with Mycolicibacterium smegmatis. As to the kind of experiment: Antibacterial activity against Mycobacterium smegmatis after 72 hrs. The test is classed as functional.
Test [2] deals with Staphylococcus aureus. The test is described as follows: Antibacterial activity against Staphylococcus aureus EMRSA-15 at 128 ug/ml after 24 hrs. The test is classed as functional, organism-based.
The subject of test [3] is Staphylococcus aureus. The test is described as follows: Antibacterial activity against Staphylococcus aureus 1199B overexpressing NorA at 128 ug/ml after 24 hrs. The class given is functional, organism-based.
In test [4] the test system is Staphylococcus aureus. As to the kind of experiment: Antibacterial activity against Staphylococcus aureus ATCC 25923 at 128 ug/ml after 24 hrs. The test is classed as functional, organism-based.
Test [5] concerns Staphylococcus aureus. As to the kind of experiment: Antibacterial activity against Staphylococcus aureus XU-212 overexpressing TetK, mecA at 128 ug/ml after 24 hrs. The test is classed as functional, organism-based.
The subject of test [6] is Staphylococcus aureus. The test is described as follows: Antibacterial activity against Staphylococcus aureus RN4220 overexpressing MsrA at 128 ug/ml after 24 hrs. The test is classed as functional, organism-based.
For test [7], the system named is Mycolicibacterium fortuitum. As to the kind of experiment: Antibacterial activity against Mycobacterium fortuitum after 72 hrs. The class given is functional.
Test [8] deals with Staphylococcus aureus. As to the kind of experiment: Antibacterial activity against Staphylococcus aureus XU-212 overexpressing TetK, mecA after 24 hrs. The class given is functional. The note with it: XU-212, 24 h.
Test [9] has as its system Staphylococcus aureus. The test is described as follows: Antibacterial activity against Staphylococcus aureus RN4220 overexpressing MsrA after 24 hrs. The class given is functional. The note with it: RN4220, 24 h.
The subject of test [10] is Staphylococcus aureus. The test is described as follows: Antibacterial activity against Staphylococcus aureus ATCC 25923 after 24 hrs. The test is classed as functional. Particulars: ATCC 25923, 24 h.
The test system of test [11] is Staphylococcus aureus. The test is described as follows: Antibacterial activity against Staphylococcus aureus 1199B overexpressing NorA after 24 hrs. The test is classed as functional.
For test [12], the system named is Staphylococcus aureus. As to the kind of experiment: Antibacterial activity against Staphylococcus aureus EMRSA-15 after 24 hrs. The note with it: EMRSA-15, 24 h. The class given is functional.

In brackets after ≈: the same amount, converted by molar mass. Activity calls are given as the source filed them. No cut-off for these calls is given here.

Regarding `C=C[C@@]1(C)C[C@H](O)[C@@H]2[C@@]3(C)[C@H](O)CCC(C)(C)[C@@H]3CC[C@@]2(C)O1`, the MIC (against Mycolicibacterium phlei; in test [1]; in test [7]) was 128 µg/mL (≈ 397 µM) in each case. Further, the MIC result in the test with Staphylococcus aureus [2], in the test on Staphylococcus aureus [3], with Staphylococcus aureus [4], with Staphylococcus aureus [5] and in the test on Staphylococcus aureus [6] was “inactive” each time.
Take `CC1(C)CCC[C@]2(C)[C@H]3CC[C@](C)(C4CO4)C=C3C(=O)C[C@@H]12` (relative stereo): the minimum inhibitory concentration (MIC) against Mycolicibacterium phlei amounted to 64 µg/mL (≈ 212 µM); in test [1], 128 µg/mL (≈ 423 µM); in test [7] it was 128 µg/mL (≈ 423 µM). Besides, the MIC entry with Staphylococcus aureus [2], in the test on Staphylococcus aureus [3], with Staphylococcus aureus [4], in the test with Staphylococcus aureus [5] and with Staphylococcus aureus [6] was “inactive” in each case.
With `CC1(C)CCC[C@]2(C)[C@H]3CC[C@](C)(C4CO4)C=C3[C@H](O)C[C@@H]12` (relative stereo), the minimum inhibitory concentration (MIC) amounted to 8 µg/mL (≈ 26.3 µM) against Mycolicibacterium phlei; 16 µg/mL (≈ 52.5 µM) in test [1]; 32 µg/mL (≈ 105 µM) against Staphylococcus aureus [8]; 32 µg/mL (≈ 105 µM) with Staphylococcus aureus [9]; 32 µg/mL (≈ 105 µM) with Staphylococcus aureus [10]; 32 µg/mL (≈ 105 µM) in the test on Staphylococcus aureus [11]. Moreover, the values for the MIC (with Staphylococcus aureus [12]; in [7]) were 32 µg/mL (≈ 105 µM) and 16 µg/mL (≈ 52.5 µM), respectively.
Regarding `CC[C@H]1OC(=O)[C@H](C)[C@@H](O[C@H]2C[C@@](C)(OC)[C@@H](O)[C@H](C)O2)[C@H](C)[C@@H](O[C@@H]2O[C@H](C)C[C@H](N(C)C)[C@H]2O)[C@](C)(O)C[C@@H](C)C(=O)[C@H](C)[C@@H](O)[C@]1(C)O` [ERYTHROMYCIN], the MIC against Staphylococcus aureus [9] is 128 µg/mL (≈ 174 µM).
For the compound `CC[C@@H](CO)NCCN[C@@H](CC)CO` [ETHAMBUTOL], the MIC amounted to 2 µg/mL (≈ 9.79 µM) with Mycolicibacterium phlei, 0.5 µg/mL (≈ 2.45 µM) in test [1] and 4 µg/mL (≈ 19.6 µM) in test [7].
As for `CCn1cc(C(=O)O)c(=O)c2cc(F)c(N3CCNCC3)cc21` [NORFLOXACIN], the MIC worked out at 0.5 µg/mL (≈ 1.57 µM) against Staphylococcus aureus [10], 32 µg/mL (≈ 100 µM) in the test on Staphylococcus aureus [11] and 2 µg/mL (≈ 6.26 µM) against Staphylococcus aureus [12].
With `CN(C)[C@@H]1C(O)=C(C(N)=O)C(=O)[C@@]2(O)C(O)=C3C(=O)c4c(O)cccc4[C@@](C)(O)[C@H]3C[C@@H]12` [TETRACYCLINE], the minimum inhibitory concentration (MIC) with Staphylococcus aureus [8] was 128 µg/mL (≈ 288 µM).
